Test: Human intestinal S9 fraction in vitro stability assay (HInt)
Format: in vitro ADME
Conditions: human intestinal S9 0.1 mg/mL, 1 μM test compound, pH 7.4, 37° C., substrate depletion
Text: In particular, the human intestinal S9 fraction in vitro stability assay (HInt) and human hepatocyte in vitro liver metabolism assay (HHep) provide important information regarding the clearance and metabolic activation of these compounds. The human intestinal S9 fraction in vitro stability assay provides a surrogate measure of compound metabolism as it travels across the gut wall; compounds with low CLint values more likely to enter the portal vein and be exposed to the liver. Likewise, the human hepatocyte in vitro liver metabolism assay provides a surrogate measure of compound metabolism when exposed to liver; compounds with high CLint values are more likely to be metabolically activated. For compounds such as prodrugs that release an active species on metabolic activation, high CLint values in human hepatocytes are desirable. Active compounds released in this way inhibit PCSK9 and show improved atherosclerotic properties by increased exposure of the active metabolite in the liver.
Human Intestinal S9 Fraction In Vitro Stability Assay (Hint)
In vitro stability of test compounds in human intestinal S9 fraction was determined by a substrate depletion approach. Frozen PMSF-free human intestinal S9 (BD Gentest) was thawed on wet ice and diluted to the test concentration of 0.1 mg/mL in 100 mM potassium phosphate buffer pH 7.4. Aliquots of diluted intestinal S9 (495 μL, n=2) were added to tubes in a dry heat bath and pre-warmed for 5 min at 37° C. Test compounds were dissolved in DMSO at 30 mM, ordered from the TekCel at 10 mM, and further diluted to 0.1 mM in DMSO. To initiate the reaction, 5 μL of 0.1 mM DMSO stock solution was added to the pre-warmed intestinal S9. The final test compound concentration in the incubation was 1 μM. At each time point (0.25, 5, 10, 20, 40, and 60 min) a 50 μL sample of incubate was removed and transferred to a plate containing 200 μL acetonitrile with internal standard (2 ng/mL terfenadine). After collection of the final time point, sample plates were capped, vortexed, and centrifuged for 5 minutes at approximately 2000×g. 150 μL of supernatant was removed and transferred to a clean storage plate for direct LC-MS/MS analysis. LC-MS/MS analysis was conducted on a Triple Quad 5500 (AB Sciex) with two LC-20AD pumps and CBM-20 controller (Shimadzu) and CTC PAL autosampler (LEAP Technologies). The MS was operated in multiple reaction monitoring mode with simultaneous monitoring for test compound and internal standard. 5 μL of sample was injected on a Kinetex C18 30×2.1 mm column (Phenomenex) and eluted at 0.5 ml/min under the following conditions, where solvent A was water containing 0.1% formic acid and solvent B was acetonitrile containing 0.1% formic acid: hold initial conditions 90% A and 10% B for 0.8 min, ramp to 30% A and 70% B over 1 min, step to 5% A and 95% B over 0.05 min, hold at 5% A and 95% B for 0.15 min, return to initial conditions over 0.1 min, and hold for 0.4 min. Peak areas of test compound and internal standard were quantitated using Analyst 1.5 (AB Sciex) and the ratios of test compound peak area to internal standard peak area (area ratio) were calculated. The natural log of area ratio was plotted versus time and the portion of the curve representing the initial linear rate of test compound depletion was fit using linear regression (IDBS E-Workbook 9.4). The slope of this line was converted to half-life (t1/2=−LN2/slope). Half-life was used to calculate intrinsic apparent clearance (CLint=LN2/(t1/2*(mg protein/ml incubation))).

`CCOC(=O)O[C@@H](C)n1nnnc1-c1c(-c2ccc(C(=O)N(c3ncccc3Cl)[C@@H]3CCCNC3)cc2)cnn1C` [Example 6, ethyl (S)-1-{5-[1-methyl-4-(4-{(3-chloropyridin-2-yl)[(3R)-piperidin-3-yl]carbamoyl}phenyl)-1H-pyrazol-5-yl]-1H-tetrazol-1-yl}ethyl carbonate] and `CCOC(=O)O[C@@H](C)n1nnnc1-c1c(-c2ccc(C(=O)N(c3ncccc3C)[C@@H]3CCCNC3)cc2)cnn1C` [Example 5a, ethyl (S)-1-{5-[1-methyl-4-(4-{(3-methylpyridin-2-yl)[(3R)-piperidin-3-yl]carbamoyl}phenyl)-1H-pyrazol-5-yl]-1H-tetrazol-1-yl}ethyl carbonate] cannot be ordered by microsomal CLint at 1 μM: less than 57.8 µL/min/mg for the first, less than 57.8 µL/min/mg for the second.

Compared with `CCOC(=O)O[C@@H](C)n1nnnc1-c1c(-c2ccc(C(=O)N(c3ncccc3Cl)[C@@H]3CCCNC3)cc2F)cnn1C` [Example 7, ethyl (S)-1-{5-[4-(4-{(3-chloropyridin-2-yl)[(3R)-piperidin-3-yl]carbamoyl}-2-fluorophenyl)-1-methyl-1H-pyrazol-5-yl]-1H-tetrazol-1-yl}ethyl carbonate], `CCOC(=O)O[C@H](C)n1nnnc1-c1c(-c2ccc(C(=O)N(c3ncccc3Cl)[C@@H]3CCCNC3)cc2F)cnn1C` [Example 11, ethyl (R)-1-{5-[4-(4-{(3-chloropyridin-2-yl)[(3R)-piperidin-3-yl]carbamoyl}-2-fluorophenyl)-1-methyl-1H-pyrazol-5-yl]-1H-tetrazol-1-yl}ethyl carbonate] is higher in microsomal CLint at 1 μM: less than 82.9 µL/min/mg for the first, 620 µL/min/mg for the second.

`CCOC(=O)O[C@@H](C)n1nnnc1-c1c(-c2ccc(C(=O)N(c3ncccc3C)[C@@H]3CCCNC3)nc2)cnn1C` [Example 9, ethyl (S)-1-{5-[1-methyl-4-(6-{(3-methylpyridin-2-yl)[(3R)-piperidin-3-yl]carbamoyl}pyridin-3-yl)-1H-pyrazol-5-yl]-1H-tetrazol-1-yl}ethyl carbonate] and `CCOC(=O)O[C@@H](C)n1nnnc1-c1c(-c2ccc(C(=O)N(c3ncccc3Cl)[C@@H]3CCCNC3)nc2)cnn1C` [Example 10, ethyl (S)-1-{5-[4-(6-{(3-chloropyridin-2-yl)[(3R)-piperidin-3-yl]carbamoyl}pyridin-3-yl)-1-methyl-1H-pyrazol-5-yl]-1H-tetrazol-1-yl}ethyl carbonate] cannot be ordered by microsomal CLint at 1 μM: less than 57.8 µL/min/mg for the first, less than 57.8 µL/min/mg for the second.

`CCOC(=O)O[C@@H](C)n1nnnc1-c1c(-c2ccc(C(=O)N(c3ncccc3C)[C@@H]3CCCNC3)cc2F)cnn1C` [Example 8, ethyl (S)-1-{5-[4-(4-{(3-methylpyridin-2-yl)[(3R)-piperidin-3-yl]carbamoyl}-2-fluorophenyl)-1-methyl-1H-pyrazol-5-yl]-1H-tetrazol-1-yl}ethyl carbonate] and `CCOC(=O)O[C@H](C)n1nnnc1-c1c(-c2ccc(C(=O)N(c3ncccc3C)[C@@H]3CCCNC3)cc2)cnn1C` [Example 5b, ethyl (R)-1-{5-[1-methyl-4-(4-{(3-methylpyridin-2-yl)[(3R)-piperidin-3-yl]carbamoyl}phenyl)-1H-pyrazol-5-yl]-1H-tetrazol-1-yl}ethyl carbonate] are within 1.5-fold of each other in microsomal CLint at 1 μM: 116 µL/min/mg for the first, 86.9 µL/min/mg for the second.
